Test results taken from patent EP4349409A1, “COMPOUNDS FOR THE MANAGEMENT OF CELL STEMNESS AND INVASION IN CANCER AND RELATED DISEASES” (Instituto Biomar S.A., priority 2022, dated 2024).

Key:
[1] = system: TAp73; experiment: Western blot of endogenous TAp73 protein in U373 and T98G glioblastoma cell lines; assay type: cell-based, human; conditions: 72 h, BMT9 9 and 18 µM, TMZ 350 µM, BCNU 150 µM
Protocol: Next, we compared the effect of BMT9 and TMZ or BCNU treatments on endogenous TAp73 protein levels in U373 and T98G glioblastoma cell lines (Figure 2F and G). Cells were treated for 72 h either with BMT9 at 9 and 18 µM, or with TMZ and BCNU at the standard concentrations referred in other articles (350 µM and 150 µM, respectively). Protein extracts were obtained and analyzed by Western blot using a TAp73 specific antibody and GAPDH as a loading control. Densitometric quantification of the obtained blots are represented in Figure 2F and G (Y axis, ratio of TAp73/GAPDH band intensity and X axis, indicated treatments).

[2] = system: TAp73; experiment: Western blot of endogenous TAp73 protein in glioblastoma stem cells G144 and G179; assay type: cell-based, human; conditions: G144 and G179, 72 h; BMT9 2.25 µM, TMZ 350 µM, BCNU 150 µM
Protocol: To specifically address BMT9 effect on endogenous TAp73 protein levels, we performed a Western blot analysis using an anti-TA-specific antibody. Cells were treated for 72 h either with a low dose of BMT9 (2.25 µM), or with TMZ and BCNU at the standard concentrations used in other articles (350 µM and 150 µM, respectively). Protein extracts were obtained and analyzed by Western blot (Figure 4B-C) and densitometric quantification of the autoradiographies was carried out. The ratio of TAp73/GAPDH band intensity was calculated and protein expression levels relative to non-treated (NT) cells were represented (Y axis).

[3] = system: G144; experiment: MTT-based cytotoxicity assay, G144; assay type: cell-based, human; conditions: for IC50: G144, MTT, 72 h
Protocol: A dose-response analysis of BMT9 (concentrations ranging from 4.5 µM-18 µM), BCNU (from 150 µM-500 µM) and TMZ (350 µM-700 µM) was performed in two conventional glioblastoma cell lines (T98G, U373) and the GNS cell line G144 by MTT-based cytotoxicity assays (Figure 5A-D). Cells were seeded on p96-well plates and treated with the different compounds for 72 h. Then, the MTT reagent (3-(4,5-Dimethyl-2-thiazolyl)-2,5-diphenyl-2H-tetrazolium bromide diluted in PBS to a concentration of 1mg/ml), was added to each well to a final concentration of 0.33mg/ml, and incubated for 3 h at 37°C. After that, the media was removed, and formazan crystals were solubilized with DMSO. Absorbance was measured at 560 nm using a "Synergy HT" plate reader (Biotek). In the graphs, the Y axis represents the percentage of cell viability relative to non-treated cells. The IC50, when reached are marked by a rectangle. DMSO treatment had no effect on cell viability.
Previous studies have reported that the molecular signature of the GNSC G144 cell line corresponds to a 'proneural' subtype of GB with NSC features (Pollard et al., 2009; Danovi et al., 2013). Thus, to test BMT9 specificity we compared cellular viability when treating CD133-positive cells (either GNSCs or normal human fetal neural stem cells-NSC) versus CD133-negative human embryonic fibroblast (HEFs) (Figure 8A). MTT-based cytotoxicity assay (Figure 7B-D) were performed as previously described.
(§1) While the first line therapy of gliomas has proven its effectiveness and improved clinical outcomes, acquired chemoresistance to alkylating agents has been identified as a major cause of treatment failure (Sarkaria et al., 2008). In a murine model of GB, long-term treatment with subtoxic TMZ doses enriched the side population of cancer stem cells, increasing the tumor aggressiveness (Bleau et al., 2009). Thus, we generated TMZ-resistant G144-clones that were selected upon treatment with TMZ either at 500 µM or 700 µM for several months (R500 and R700, respectively). The obtained clones maintained CD133 stem marker expression (Figure 9A). We then analyzed BMT9 dose-dependent effect on cell viability, by MTT assay, comparing the resistant clones to parental cells.

[4] = system: GNSCs; experiment: Sphere-forming clonogenic assay of GNSCs; assay type: cell-based; conditions: 4.5 µM and 9 µM, sphere forming conditions (data not shown)
Protocol: To further investigate whether BMT9 reduced stemness potential of the GNSCs, we performed a sphere-forming clonogenic assay. Cells were seeded on sphere forming conditions, that is 40,000 cells/ml without laminin coating. Cells were treated with BMT9 at 4.5 µM and 9 µM 24 h after seeding.

[5] = system: G144 cells; experiment: Proliferation rate analysis by p-His-3 immunostaining in G144 cells; assay type: cell-based, human; conditions: G144, 4.5 µM, 72 h (data not shown)
Source text: It is noteworthy that G144 cells proliferate very slowly and, at maintenance culture conditions, about 90% of the cells are in G1 phase of the cell cycle (data not shown).

[6] = system: G144 R500; experiment: MTT assay, TMZ-resistant clone G144 R500; assay type: cell-based; conditions: Homo sapiens, 72 hours
Source text: as §1

[7] = system: G179; experiment: Scratch (wound healing) assay, G179; assay type: cell-based; conditions: G179, 4.5µM, 24 h
Protocol: The effect of BMT9 in cell migration was evaluated using scratch assays, also known as wound healing assays. Cells were seeded in culture inserts for wound healing assays (Ibidi) at a cell density of 35,000 cells/cm^2; 24 h later the insert was removed to create the wound, and fresh medium was added with the corresponding treatment. Microscopy images were acquired at the time of treatment and 24 h later, using a Leica DMI3000 phase contrast microscope. Analysis was performed using the ImageJ software (Schindelin et al., 2012) and the MRI wound healing tool plugin (Suarez-Arnedo et al., 2020). Cell-free area was measured at the two indicated time points and the wound closure percentage relative to the starting point was calculated for each well individually. This assay was performed in G144 and in G179 cells (Figure 10 B and C, respectively).

C=C1C2CCC(C)(C3COc4c(C)c(OC)c5c(c4C3O)C(O)OC5=O)C1CCC2(C)C (stereo not shown) [BMT9]
endogenous TAp73 protein levels (TAp73/GAPDH) [1]: efficiently reduced endogenous TAp73 expression
endogenous TAp73 protein levels (TAp73/GAPDH) [2]: reduced effectively TAp73 expression
concentration as low as which still reduced viability ([3]; G144, 72 h after treatment): 2.25 µM
IC50 [3]: 4.5 µM
cellular viability in long term culture ([3]; GNSC (G144, CD133-positive), 1.125-4.5 µM): stronger effect against GNSC
IC50 ([3]; Homo sapiens): < 4.5 µM
sphere generation [4]: reduce sphere generation in a dose dependent manner
percentage of cells in mitosis [5]: 0.1%
IC50 [6]: 4.5 to 9 µM
cell migration (wound closure) [7]: significantly impaired cell migration
